B1: Pisum sativum chloroplastic CuZn-superoxide dismutase (PschSOD), recombinant, without chloroplast transit peptide (enzyme, Pisum sativum (pea), UniProt P11964 49-202, looked up)
chain: AAKKAVSVLKGTSAVEGVVTLTQDDEGPTTVNVRITGLTPGLHGFHLHEYGDTTNGCISTGPHFNPNKLTHGAPEDEIRHAGDLGNIVANAEGVAEATIVDNQIPLTGPNSVVGRALVVHELQDDLGKGGHELSLSTGNAGGRLACGVVGLTPV
notes: the forward primer (NdeI, [residues removed]) encodes M-AAKKAVA, the reverse primer ends at ...GLTPV and the stop codon; Cloned NdeI/BamHI into pET-28a; One Cu and one Zn per subunit (about 1.84 Cu and 1.6 Zn per dimer); also called Pisum sativum SOD II; pea chloroplastic SOD; source: E. coli BL21 (DE3), pET-28a, purified (Ni-NTA, desalting, buffer exchange, dialysis)

Key:
[1] = biological target: T1, PschSOD (recombinant chloroplastic CuZn-SOD) (Lathyrus oleraceus, UniProt P11964); assay: pyrogallol autoxidation SOD assay, residual activity; type: biochemical; conditions: superoxide from pyrogallol autoxidation; no constant
T1 construct: gene SODCP; mature form without chloroplast transit peptide (forward primer encodes MAAKKAVA), pET-28a His-tag kept, E. coli BL21 (DE3), Cu/Zn supplemented, ~18 kDa subunit, homodimer 36-38 kDa
T1 sequence (P11964 49-202): B1 chain

[2] = biological target: the molecule itself; assay: SEC; analytical gel filtration on a Bio-Sil 250 column, 5 mM K-PO4 pH 7.2 with 150 mM NaCl, calibrated with standard proteins; native mass compared with subunit mass on 15% SDS-PAGE

Row | Molecule | pyrogallol autoxidation SOD assay, residual activity [1] | stoichiometry N [2]
1 | [O]O [O2^∙−, superoxide anion] | Superoxide dismutase specific activity of PschSOD, assayed by pyrogallol method | 
2 | B1 |  | 2

Reference: paper PMC4333176, “Heterologous expression and biochemical characterization of a highly active and stable chloroplastic CuZn-superoxide dismutase from Pisum sativum” (BMC Biotechnology, 2015)
